# According to patent EP4080216A1, “METHODS DETERMINING THE POTENTIAL OF DRUGS FOR TREATING BACTERIAL INFECTIONS AND COMPOSITION FOR TREATING BACTERIAL INFECTIONS” (priority 2021, dated 2022):
# Entries after “also recorded” stand apart in the source; their conditions may differ.
# Tests used:
# CD14 = assay: bead assay: binding of fluorescent FimH-expressing (ON) bacteria to CD14-coupled magnetic beads, flow cytometry; design: species or system murine
# Experimental: In one embodiment, the CD14 protein is a recombinant chimeric protein. In a preferred embodiment, the CD14 protein comprises the murine N-terminal of CD14 which is bound to protein A on the magnetic beads via the Fc tail. In another embodiment, the magnetic beads are pre-coated with protein A. In one preferred embodiment, a fluorescent marker is stably integrated into the DNA of the bacteria. The stable integration of a fluorescent marker into the bacteria DNA is performed by any conventional means known to the skilled person such as by transforming the bacteria with a conditional-replication, integration, and modular (CRIM) plasmid. In another embodiment, the fluorescent marker is transiently integrated into the DNA of the bacteria. The transient integration of a fluorescent marker into the bacteria DNA is performed by any conventional means known to the skilled person such as by transforming the bacteria with a plasmid harbouring the fluorescent marker. In another embodiment, the DNA is visualized by a fluorescent marker added after step f). In a preferred embodiment, the fluorescent marker added after step f) is a fluorescent dye. In the latter embodiment, the fluorescent marker or fluorescent dye is thiazole orange, Hoechst 3342, Hoechst 3358, or carboxyfluorescein diacetate (CFDA) and its derivatives. In one embodiment, the infection causing type I piliated gram-negative bacteria are causing neonatal meningitis. In another embodiment, the infection causing type I piliated gram-negative bacteria are causing inflammatory bowel diseases such as Crohn's disease or ulcerative colitis. In one embodiment, the infection causing type I piliated gram-negative bacteria causes Crohn's disease. In another embodiment, the infection causing type I piliated gram-negative bacteria causes ulcerative colitis. In yet another embodiment, the infection causing type I piliated gram-negative bacteria causes gastrointestinal disorders or gastrointestinal diseases such as salmonellosis. In a preferred embodiment, the infection causing type I piliated gram-negative bacteria cause urinary tract infections. In a particularly preferred embodiment, the type I piliated gram-negative bacteria causing urinary tract infections are uropathogenic E. coli. In one embodiment, the incubation of the type I piliated gram-negative bacteria with the CD14-coupled magnetic beads and the added drug or compound lasts between ten minutes and six hours. In one embodiment, the incubation takes between 30 minutes and three hours. In a particularly preferred embodiment, the incubation takes between 45 and 90 minutes. In one embodiment, the added drug or compound is an inhibitor, antibody or antibiotic. […]
# [1] = test system: Hox8b-derived murine dendritic cells; assay: adhesion assay: adhesion of dendritic cells infected with type I piliated (ON) bacteria, Hoechst fluorescence plate reader and brightfield images; format: cell-based; details: ON bacteria at multiplicity of infection of 10, 18 to 20 hours post infection
# Experimental: In one embodiment, the dendritic cells are dendritic cells from any mammalian species such as human, primate, mouse, cow, pig, dog, goat, rabbit, rat and cow. In one embodiment, the dendritic cells are human or murine dendritic cells. In another embodiment, the dendritic cells are established dendritic cell lines. In another embodiment, the dendritic cells are human dendritic cell lines such as Thp-1, HL-60, MUTZ-3, U937, KG-1 and PDMC05. In one embodiment, the dendritic cells are cultured in regular cell culture dishes or cell culture plates known to the skilled person in the art. In another embodiment, the cell culture dishes or cell culture plates are treated with different extracellular matrix components such as fibronectin or fibrinogen or combinations thereof. In another embodiment, genetically modified dendritic cells are used. In a preferred embodiment, the genetically modified dendritic cells express a fluorescent marker. In a particularly preferred embodiment, the genetically modified dendritic cells have a fluorescently labelled actin cytoskeleton. In a particularly preferred embodiment, the genetically modified dendritic cells express LifeAct®-GFP and therefore, have a fluorescently labelled actin cytoskeleton. In one embodiment, the dendritic cells are infected with the bacteria at a multiplicity of infection of 1-100 (1-100 bacteria per 1 dendritic cell). The skilled person is aware that infected dendritic cells are activated dendritic cells. In another embodiment, the dendritic cells are infected with the bacteria at a multiplicity of infection of 1-30 (1-30 bacteria per 1 dendritic cell). In a particularly preferred embodiment, the dendritic cells are infected with the bacteria at a multiplicity of infection of 10 (10 bacteria per 1 dendritic cell). In one embodiment, the infection causing type I piliated gram-negative bacteria are causing neonatal meningitis. In another embodiment, the infection causing type I piliated gram-negative bacteria are causing inflammatory bowel diseases such as Crohn's disease or ulcerative colitis. In one embodiment, the infection causing type I piliated gram-negative bacteria causes Crohn's disease. In another embodiment, the infection causing type I piliated gram-negative bacteria causes ulcerative colitis. In yet another embodiment, the infection causing type I piliated gram-negative bacteria causes gastrointestinal disorders or gastrointestinal diseases such as salmonellosis. In a preferred embodiment, the infection causing type I piliated gram-negative bacteria cause urinary tract infections. In a particularly preferred embodiment, the type I piliated gram-negative bacteria causing urinary tract infections are uropathogenic E. coli. […]
compound,measurement,setting,value
D-mannose,block binding of ON bacteria to CD14,"CD14; 175 µM, UPEC ON bacteria, one hour at 4 °C",not sufficient to block binding
same,inhibit binding of ON bacteria to CD14-coupled beads,"CD14; 1 mM, UPEC ON bacteria, one hour at 4 °C",prevented binding; also recorded: able to inhibit binding
same,adhesion of dendritic cells,[1]; 175 µM,did not decrease adhesion
same,adhesion of dendritic cells,[1]; 1 mM,resulted in decreased adhesion; also recorded: partially able to do so
CNC(=O)c1cc(C(=O)NC)cc(-c2ccc(O[C@H]3O[C@H](CO)[C@@H](O)[C@H](O)[C@@H]3O)c(C)c2)c1 [M4284],inhibit binding of ON bacteria to CD14-coupled beads,"CD14; 10 µM, UPEC ON bacteria, one hour at 4 °C",prevented binding; also recorded: able to inhibit binding
same,adhesion of dendritic cells,[1]; 10 µM,resulted in decreased adhesion; also recorded: partially able to do so
Cc1c2c(c(O)c3c(O)cccc13)C(=O)[C@]1(O)C(=O)C(C(N)=O)=C(O)[C@@H](N(C)C)[C@@H]1C2 [anhydrotetracycline],prevent binding of ON bacteria to CD14-coupled beads,"CD14; sub-minimal inhibitory concentrations, ON bacteria",not able to prevent binding
same,adhesion of dendritic cells,[1]; concentration not given,increased adhesion even further; also recorded: significantly increased adhesion
